As usually defined, the IC50 is the midpoint of a concentration-inhibition curve. A word on the EC50: it is the concentration at which the effect is half-maximal. The AC50 is the midpoint of the concentration-response curve, whichever way the signal moves.

Consider 16 compounds from ChEMBL document CHEMBL1201862, “PubChem BioAssay data set” (2004).

Structures are written as SMILES. The source made the active and inactive calls.

Assay [1] in a line: cells. Format: functional, cell-based.
For assay [2], the target named is T1, Trace amine-associated receptor 1 (Homo sapiens, UniProt Q96RJ0).
T1 sequence (Q96RJ0 whole entry): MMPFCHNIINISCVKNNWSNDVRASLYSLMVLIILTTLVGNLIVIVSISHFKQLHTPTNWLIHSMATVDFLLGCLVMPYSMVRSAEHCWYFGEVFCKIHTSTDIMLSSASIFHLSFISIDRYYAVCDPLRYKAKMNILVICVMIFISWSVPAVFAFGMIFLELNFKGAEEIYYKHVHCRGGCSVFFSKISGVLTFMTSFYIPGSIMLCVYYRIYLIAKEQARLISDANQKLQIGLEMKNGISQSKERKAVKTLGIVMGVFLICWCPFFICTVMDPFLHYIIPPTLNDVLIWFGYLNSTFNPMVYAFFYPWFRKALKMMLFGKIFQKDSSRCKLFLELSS
Nature of the assay: Counterscreen for agonists of the human trace amine associated receptor 1 (hTAAR1): Fluorescence-based cell-based high throughput dose response assay to identify hTAAR1 agonist that also desensitize TAAR1 receptor response. The assay is classed as functional.

Assay [3] deals with T1, Trace amine-associated receptor 1. Nature of the assay: Fluorescence-based cell-based high throughput dose response assay to identify agonists of the human trace amine associated receptor 1 (TAAR1). Format: functional.
Assay [4] in a line: cells. Format: functional, cell-based. This is another data set of the same source.
The next assay relates to H4. Briefly: Luminescence Cell-Based Dose Response HTS to Identify Activators of 5'UTR Stem-Loop Driven Prion Protein mRNA Translation in H4 Neuroglioblastoma Cells. [Related pubchem assays: 1829 (Project Summary), 1814 (Primary HTS)]. The assay is classed as functional. The following applies: Homo sapiens.
The nature of assay [5]: Luminescence Cell-Based Dose Response HTS to Identify Activators of Luciferase Translation or Activity in H4 […] Cells. [Related pubchem assays: 1829 (Project Summary), 1814 (Primary HTS)]. Format: functional.
Assay [6] can be described thus: Luminescence Cell-Based Dose Confirmation HTS to Identify Activators of 5'UTR Stem-Loop Driven Alpha-Synuclein mRNA Translation in H4 Neuroglioblastoma Cells. [Related pubchem assays: 1829 (Project Summary), 1814 (Primary HTS)]. The assay is classed as functional.
In assay [7] the target is T2, DNA repair and recombination protein RAD54-like (Homo sapiens, UniProt Q92698).
T2 sequence (Q92698 whole entry): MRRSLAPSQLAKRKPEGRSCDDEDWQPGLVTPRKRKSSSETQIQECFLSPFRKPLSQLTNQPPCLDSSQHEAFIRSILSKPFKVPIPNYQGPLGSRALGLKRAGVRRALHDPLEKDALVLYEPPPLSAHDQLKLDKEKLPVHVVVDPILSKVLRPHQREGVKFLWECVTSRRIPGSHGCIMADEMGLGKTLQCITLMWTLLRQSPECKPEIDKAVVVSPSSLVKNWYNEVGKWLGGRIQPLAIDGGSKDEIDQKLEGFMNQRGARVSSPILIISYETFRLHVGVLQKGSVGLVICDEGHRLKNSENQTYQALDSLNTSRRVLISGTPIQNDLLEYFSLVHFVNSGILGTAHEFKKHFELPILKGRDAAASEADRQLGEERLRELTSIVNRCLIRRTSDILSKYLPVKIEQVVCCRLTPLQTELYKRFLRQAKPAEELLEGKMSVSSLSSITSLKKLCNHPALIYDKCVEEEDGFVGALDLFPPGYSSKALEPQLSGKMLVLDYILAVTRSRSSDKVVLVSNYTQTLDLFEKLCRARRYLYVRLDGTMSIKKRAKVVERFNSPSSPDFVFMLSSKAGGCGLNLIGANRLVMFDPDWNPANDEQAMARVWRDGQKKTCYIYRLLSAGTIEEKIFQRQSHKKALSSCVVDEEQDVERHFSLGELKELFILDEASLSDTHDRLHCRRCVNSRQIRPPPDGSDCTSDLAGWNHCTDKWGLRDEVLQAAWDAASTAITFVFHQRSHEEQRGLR
Nature of the assay: RAD54 Holliday junction migration blockers – biochemical, fluorescence, cherry-picked samples, dose series, confirmation (AID 651657). The assay is classed as functional.

Assay [8] can be described thus: OVCAR-3 cell viability loss – plate reader, dry powder samples, PAX8 inhibitor project, dose response (AID 743044). The assay is classed as functional, cell-based.
The nature of assay [9]: P. falciparum Dd2 growth inhibitors, dose response, SYBR Green, cherry-picked samples (AID 1159567). The assay is classed as functional, cell-based.
A short description of assay [10]: OVCAR8 cell viability loss – plate reader, dry powder samples, PAX8 project, dose response (AID 743197). Format: functional, cell-based. The following applies: OVCAR-8.
The target in the next assay is Paired box protein Pax-8 (Homo sapiens, UniProt Q06710). Briefly: PAX8 transcriptional activity inhibition in RMG-I – RMG-I cells, luciferase, cherry-pick, dose response (AID 687027).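 Note: luciferase reporter driven by Pax8 target thyroperoxidase promoter measured by SteadyGlo luminescence.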 Format: functional, cell-based.
Sequence of Paired box protein Pax-8 (Q06710 whole entry): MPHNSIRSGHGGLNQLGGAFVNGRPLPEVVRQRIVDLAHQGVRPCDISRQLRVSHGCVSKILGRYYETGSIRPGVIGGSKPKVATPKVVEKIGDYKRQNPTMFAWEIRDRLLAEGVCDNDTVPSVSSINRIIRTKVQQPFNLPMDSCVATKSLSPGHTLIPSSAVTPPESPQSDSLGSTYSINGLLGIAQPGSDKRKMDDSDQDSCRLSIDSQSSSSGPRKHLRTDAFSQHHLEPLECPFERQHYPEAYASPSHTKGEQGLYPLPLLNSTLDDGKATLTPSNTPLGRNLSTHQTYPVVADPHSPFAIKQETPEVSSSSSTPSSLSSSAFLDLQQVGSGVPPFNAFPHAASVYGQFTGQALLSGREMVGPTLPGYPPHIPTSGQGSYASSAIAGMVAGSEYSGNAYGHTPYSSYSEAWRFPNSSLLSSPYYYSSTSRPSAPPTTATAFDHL
Assay [11] in a line: blockade of melanocortin 4 receptor signaling – cell-based, plate reader, cherry pick, counter-screen for LGR2 antagonist project, dose response (AID 743444).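 Note: transfected HEK 293 cells stimulated with alpha-MSH peptide; potency of inhibitors of the alpha-MSH evoked signal.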 Format: functional. Background: Counterscreens check selectivity or assay interference.
Assay [12] is described as follows: blockers of bursicon-stimulated LGR2 cAMP reporter – cell-based, HEK293, CRE-luciferase reporter, cherry pick, set 2, dose response (AID 743343).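 Note: transfected cells were stimulated with diluted bursicon conditioned medium after compound addition.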 Format: functional.
Assay [13] can be described thus: A549 cell cytotoxicity, dose response, cytotoxicity control, plate reader, cherry-pick, antagonist series (AID 743412). The assay is classed as functional, cell-based.
Assay [14] in a line: HIV-1 AD8 envelope cell-cell fusion blockers – cherry-pick, dose response (AID 652062).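 Note: luciferase signal from cell-cell fusion driven by HIV-1 clade B AD8 Env; potency is for inhibitors of fusion seen as a drop in luminescence.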 Format: functional, cell-based.
Assay [15] is described as follows: blockers of HIV-1 ZM109 envelope-driven cell-cell fusion – HeLa effector, CEM target cells, luciferase, cherry-pick, dose response (AID 652058).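 Note: luciferase signal from HIV-1 Env mediated cell-cell fusion of effector and target cells.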 Format: functional, cell-based.
Assay [16] in a line: blockers of HIV-1 envelope-mediated cell-cell fusion – cherry-pick, dose response (AID 652057). Format: functional, cell-based.
Assay [17] is described as follows: off-target signal loss in HeLa-CEM21 co-culture – HeLa F-luc CTL cells, cherry-picked, counter-screen for HIV-1 Env fusion inhibitor project, dose response (AID 652040).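 Note: potency for signal decrease marking cytotoxic or nonspecific inhibition.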 Format: functional, cell-based.
Assay [18] is described as follows: IGROV1 cell killing – plate reader, dry powder samples, PAX8 inhibitor project, dose response (AID 743043). Format: functional, cell-based. The following applies: IGROV-1.
For another assay, the target named is Cytochrome P450 3A4 (Homo sapiens, UniProt P08684). The following applies: Potency.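 Note: confirmatory qHTS run detecting inhibitors and substrates of CYP3A4.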
Sequence of Cytochrome P450 3A4 (P08684 whole entry): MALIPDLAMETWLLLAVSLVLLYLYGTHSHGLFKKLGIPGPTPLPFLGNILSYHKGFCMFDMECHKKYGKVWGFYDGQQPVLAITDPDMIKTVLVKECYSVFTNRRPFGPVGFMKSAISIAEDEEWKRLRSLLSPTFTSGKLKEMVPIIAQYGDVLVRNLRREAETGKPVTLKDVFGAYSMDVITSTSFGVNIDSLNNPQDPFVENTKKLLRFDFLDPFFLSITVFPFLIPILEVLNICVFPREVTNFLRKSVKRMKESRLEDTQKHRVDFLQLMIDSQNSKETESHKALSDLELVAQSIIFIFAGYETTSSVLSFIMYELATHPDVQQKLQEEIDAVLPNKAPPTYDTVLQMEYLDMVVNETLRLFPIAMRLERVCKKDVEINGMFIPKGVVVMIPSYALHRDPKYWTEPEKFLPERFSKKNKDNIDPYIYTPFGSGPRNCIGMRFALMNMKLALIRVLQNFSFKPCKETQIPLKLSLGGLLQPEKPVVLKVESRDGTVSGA
Assay [19] has as its system BJ. Briefly: cells. Format: functional, cell-based. The conditions noted are these: Homo sapiens.
Assay [20] is described as follows: DRD fibroblast viability loss – cell-based, non-viral oncogenic, luminescence, dose response (AID 1934). Format: functional. The following applies: Homo sapiens.
Assay [21] concerns BJ. Nature of the assay: BJ-TERT-LT-ST fibroblast viability loss – cell-based, RAS-independent, luminescence, dose response (AID 1935).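 Note: BJ fibroblasts immortalized with TERT plus LT and ST oncogenes.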 The assay is classed as functional. The conditions noted are these: Homo sapiens.
Assay [22] relates to BJ. Briefly: BJ-TERT fibroblast viability loss – cell-based, RAS-independent, luminescence, dose response (AID 1933). The following applies: Homo sapiens. The assay is classed as functional.
Assay [23] has as its target T3, Ubiquitin-conjugating enzyme E2 N (Homo sapiens, UniProt P61088).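 Note: Dose-response confirmation in a TR-FRET assay detecting UBC13-driven polyubiquitin chain formation, inhibition measured.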
T3 sequence (P61088 whole entry): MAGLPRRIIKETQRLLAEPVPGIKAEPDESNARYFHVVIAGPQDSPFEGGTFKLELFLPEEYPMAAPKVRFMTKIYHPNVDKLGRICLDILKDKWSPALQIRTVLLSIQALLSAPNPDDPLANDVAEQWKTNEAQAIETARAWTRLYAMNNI
Format: functional.

Turning to `O=C(CCn1c(=S)[nH]c2cc3c(cc2c1=O)OCO3)NCCc1ccccc1Cl`, the values for the IC50 (in “cells [1]”; in [2]) were > 29.9 µM (inactive) and 9.24 µM (active), respectively. Moreover, the EC50 in assay [3] was 7.04 µM (active); in the assay “cells [4]”, > 29.9 µM (inactive).
As for `CCN(CC)CCCNC(=O)c1ccc2c3n(nc2c1)-c1ccc(Cl)cc1CO3`, the EC50 is 0.334 µM (active) in the assay with H4, 3.59 µM (active) in assay [5] and 101 µM (active) in assay [6]. Moreover, the half-maximal activity concentration (AC50) in assay [7] was 44.5 µM (active).
Turning to `C[C@H](CO)N1C[C@H](C)[C@@H](CN(C)S(=O)(=O)c2cccc(F)c2)OCc2ccccc2-c2c(n(C)c3ccccc23)C1=O`, the AC50 is 43.2 µM (active) in [8], 4.19 µM (active) in [9], > 70 µM (inactive) in assay [10] and 11.1 µM (active) on Paired box protein Pax-8.
As to `COCCOc1cc(NCc2ccccc2)c2ncn(C(C)C)c2c1`, the concentration at half-maximal activity (AC50) in assay [11] was 17.9 µM (active); in assay [12], 12 µM (active); in assay [13] it was 44.3 µM (active).
`Cc1nnc(SCc2nc3ccccc3c(=O)n2-c2ccccc2Cl)n1N`: the concentration at half-maximal activity (AC50) in assay [14] is 10.2 µM (active); in assay [15] it was 4.98 µM (active); in assay [16] it was 4.45 µM (active); in assay [17], 4.79 µM (active).
`Nc1c(NCCc2ccccc2)c2ccccc2oc1=O`: the IC50 in “cells [1]” was > 29.9 µM (inactive); in [2], 6.4 µM (active). For the same compound, the EC50 in [3] was 1.86 µM (active); in “cells [4]” it was > 29.9 µM (inactive).
Regarding `C[C@@H]1CN([C@H](C)CO)C(=O)c2cc(NC(=O)Nc3ccc(C(F)(F)F)cc3)ccc2O[C@@H](C)CCCCO[C@@H]1CN(C)Cc1ccc2c(c1)OCO2`, the concentration at half-maximal activity (AC50) in assay [8] is 25.1 µM (active); in assay [18], 28.4 µM (active); in assay [10] it was 26.4 µM (active); on Paired box protein Pax-8, 5.56 µM (active).
In the case of `COc1ccc(-c2cc(=O)c3c(O)c(OC)c(OC)c(OC)c3o2)cc1OC` [5-DEMETHYLNOBILETIN], the AC50 on Cytochrome P450 3A4 was 10 µM (inconclusive).
Regarding `c1ccc(-c2nc(NCCCn3ccnc3)c3oc4ccccc4c3n2)cc1`, the AC50 in assay [7] was 100 µM (inactive).
With `COC1=CC(=O)OC(CCc2ccccc2)C1` (configuration not stated), the AC50 at Cytochrome P450 3A4 is 12.6 µM (inconclusive).
As for `COc1cccc(OC)c1C(=O)NCCc1ccccc1`, the IC50 is > 29.9 µM (inactive) in the assay “cells [1]” and 9.6 µM (active) in assay [2]. Besides, the half-maximal effective concentration (EC50) is 2.64 µM (active) in assay [3] and > 29.9 µM (inactive) in the assay “cells [4]”.
For the compound `CCN1C(=O)[C@H]2[C@@H](c3ccc(C)cc3)N3C(=O)N(c4cccc(Br)c4)C(=O)[C@@]3(CC)[C@H]2C1=O`, the concentration at half-maximal activity (AC50) in [14] is 1.18 µM (active); in assay [15] it was 3.01 µM (active); in [16] it was 4.44 µM (active); in assay [17], 6.04 µM (active).
On to `CCc1ccc(CN(C(=O)COc2c(C)cccc2C)C2CCS(=O)(=O)C2)cc1` (configuration not stated), for which the EC50 with BJ [19] was > 150 µM (not active); in assay [20], > 150 µM (not active); in the assay with BJ [21], > 150 µM (inconclusive); with BJ [22] it was > 150 µM (not active).
On to `Cc1ccsc1/C=N/NC(=O)Cn1nc(C)c([N+](=O)[O-])c1C`, for which the IC50 was > 29.9 µM (inactive) in the assay “cells [1]” and 5.81 µM (active) in assay [2]. Further, the EC50 in assay [3] was 3.79 µM (active); in the assay “cells [4]”, > 29.9 µM (inactive).
As for `CCN(CC)CCNC(=O)c1cc2c(=O)n(C)c3ccccc3c2s1`, the IC50 in assay [23] was > 20 µM (inactive). In addition, the half-maximal activity concentration (AC50) in [7] is 19.6 µM (active).
With `C[C@@H]1CN([C@@H](C)CO)C(=O)Cc2cc(N(C)C)ccc2O[C@H]1CN(C)Cc1ccc(C(=O)Nc2ccccc2N)cc1`, the AC50 in [8] is < 0.26 µM (active); in assay [18], 45.1 µM (active); in assay [10] it was > 70 µM (inactive); at Paired box protein Pax-8, 16.6 µM (active).
